This note sets out measurements from US9169260B2 (MERCK SHARP & DOHME CORP., priority 2011, dated 2015).

The target of the first assay is GST tagged IRAK-4 (Homo sapiens (Human), UniProt Q9NWZ3). Put plainly: IRAK-4 Kinase Assay (IMAP fluorescence polarization). It is filed as biochemical.
Chain of GST tagged IRAK-4 (Q9NWZ3 whole entry): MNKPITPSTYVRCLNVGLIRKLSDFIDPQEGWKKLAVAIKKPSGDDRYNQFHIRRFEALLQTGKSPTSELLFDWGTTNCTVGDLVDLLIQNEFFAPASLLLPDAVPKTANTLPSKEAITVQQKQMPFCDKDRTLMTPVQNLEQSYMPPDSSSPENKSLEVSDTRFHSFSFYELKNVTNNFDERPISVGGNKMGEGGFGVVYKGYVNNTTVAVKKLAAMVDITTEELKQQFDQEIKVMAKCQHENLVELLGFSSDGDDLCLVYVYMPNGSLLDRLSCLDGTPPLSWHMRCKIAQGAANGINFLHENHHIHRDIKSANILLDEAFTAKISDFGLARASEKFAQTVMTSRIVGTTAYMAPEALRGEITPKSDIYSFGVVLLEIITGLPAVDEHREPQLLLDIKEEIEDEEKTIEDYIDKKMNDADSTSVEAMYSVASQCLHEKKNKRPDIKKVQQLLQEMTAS
Settings: not given
The method in brief:
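Activity was read by IMAP fluorescence polarization, where phosphopeptide binding to M(III) nanoparticles raises FP. The 30-minute, 25° C reaction used 100 μM ATP, 100 nM RP7030 substrate and 0.5 nM GST-IRAK-4 in pH 7.2 Tris buffer with MgCl2, DTT and Tween 20.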
A general note: In fluorescence polarisation assays a small probe gives low polarisation when free and higher when bound to something large.
Consider `Cc1ccc(-n2nc(C3CCN(S(C)(=O)=O)CC3)cc2NC(=O)c2cnn3cccnc23)cn1` [Example 168, N-(1-(6-methylpyridin-3-yl)-3-(1-(methylsulfonyl)piperidin-4-yl)-1H-pyrazol-5-yl)pyrazolo[1,5-a]pyrimidine-3-carboxamide], for which the IC50 – broadly, the concentration that inhibits the measured activity by half – is under 1 µM.

The assay is the same for the next values; noted with them: 100 μM ATP, 30 minutes at 25° C.
The molecule `Cc1ccc(-n2nc(C3CCNCC3)cc2NC(=O)c2cnn3cccnc23)c(F)c1` [Example 56, N-(1-(2-fluoro-4-methylphenyl)-3-(piperidin-4-yl)-1H-pyrazol-5-yl)pyrazolo[1,5-a]pyrimidine-3-carboxamide] yielded an IC50 of under 0.1 µM.
`[2H]C([2H])([2H])c1ccc(-n2nc(N3CCN(S(C)(=O)=O)CC3)cc2NC(=O)c2cnn3cccnc23)nc1` [Example 200, N-(1-(5-trideuteromethylpyridin-2-yl)-3-(4-(methylsulfonyl)piperazin-1-yl)-1H-pyrazol-5-yl)pyrazolo[1,5-a]pyrimidine-3-carboxamide] came in with an IC50 of under 0.1 µM.
On the same count and under the same terms, to `Cc1ccc(-n2nc(C3CCN(Cc4ccsc4)CC3)cc2NC(=O)c2cnn3cccnc23)cc1` [Example 223, N-{1-(4-methylphenyl)-3-[1-(thiophen-3-ylmethyl)piperidin-4-yl]-1H-pyrazol-5-yl}pyrazolo[1,5-a]pyrimidine-3-carboxamide] belongs under 0.1 µM; to `Cc1ccc(-n2nc(C3CCN(C4CCCOC4)CC3)cc2NC(=O)c2cnn3cccnc23)nc1` (stereo not shown) [Example 264, N-{1-(5-methylpyridin-2-yl)-3-[1-(tetrahydro-2H-pyran-3-yl)piperidin-4-yl]-1H-pyrazol-5-yl}pyrazolo[1,5-a]pyrimidine-3-carboxamide], under 0.1 µM.
On the same count and under the same terms, to `Cc1ccc(-n2nc(-c3ccc(S(C)(=O)=O)cc3C(F)(F)F)cc2NC(=O)c2cnn3cccnc23)cc1` [Example 338, N-{1-(4-methylphenyl)-3-[4-(methylsulfonyl)-2-(trifluoromethyl)phenyl]-1H-pyrazol-5-yl}pyrazolo[1,5-a]pyrimidine-3-carboxamide] belongs 0.1 µM; to `Cc1ccc(-n2nc(N3CCN(C4CCOCC4)CC3)cc2NC(=O)c2cnn3cccnc23)nc1` [Example 321, N-{1-(5-methylpyridin-2-yl)-3-[4-(tetrahydro-2H-pyran-4-yl)piperazin-1-yl]-1H-pyrazol-5-yl}pyrazolo[1,5-a]pyrimidine-3-carboxamide], under 0.1 µM.
Same read-out and setting: the result for `Cc1ccc(-n2nc(C3CCN(CC(N)=O)CC3)cc2NC(=O)c2cnn3cc(Br)cnc23)cc1` [Example 115, N-(3-(1-(2-amino-2-oxoethyl)piperidin-4-yl)-1-(p-tolyl)-1H-pyrazol-5-yl)-6-bromopyrazolo[1,5-a]pyrimidine-3-carboxamide] reads under 0.1 µM; that for `Cc1ccc(-n2nc(C3CCN(C4CC4)CC3)cc2NC(=O)c2cnn3cccnc23)cc1` [Example 40, N-(3-(1-cyclopropylpiperidin-4-yl)-1-(p-tolyl)-1H-pyrazol-5-yl)pyrazolo[1,5-a]pyrimidine-3-carboxamide], under 0.1 µM.
The molecule `Cc1ccc(-n2nc(-c3ccc(NS(C)(=O)=O)cc3)cc2NC(=O)c2cnn3cccnc23)cc1` [Example 103, N-(3-(4-(methylsulfonamido)phenyl)-1-(p-tolyl)-1H-pyrazol-5-yl)pyrazolo[1,5-a]pyrimidine-3-carboxamide] had an IC50 of under 0.1 µM.
On the same count and under the same terms, the result for `CNS(=O)(=O)c1ccc(-c2cc(NC(=O)c3cnn4cccnc34)n(-c3ccc(C)cc3F)n2)cc1` [Example 100, N-(1-(2-fluoro-4-methylphenyl)-3-(4-(N-methylsulfamoyl)phenyl)-1H-pyrazol-5-yl)pyrazolo[1,5-a]pyrimidine-3-carboxamide] reads under 0.1 µM; that for `Cc1cnc(-n2nc(C3CCN(S(C)(=O)=O)CC3)cc2NC(=O)c2cnn3cccnc23)nc1` [Example 170, N-(1-(5-methylpyrimidin-2-yl)-3-(1-(methylsulfonyl)piperidin-4-yl)-1H-pyrazol-5-yl)pyrazolo[1,5-a]pyrimidine-3-carboxamide], under 0.1 µM; that for `Cc1ccc(-n2nc(-c3ccncc3)cc2NC(=O)c2cnn3cccnc23)cc1` [Example 125, N-(3-(pyridin-4-yl)-1-(p-tolyl)-1H-pyrazol-5-yl)pyrazolo[1,5-a]pyrimidine-3-carboxamide], under 0.1 µM.
The same measure, in the same setting: the result for `Cc1ccc(-n2nc(C3CCN(Cc4ccccc4)CC3)cc2NC(=O)c2cnn3cccnc23)cc1` [Example 218, N-[3-(1-benzylpiperidin-4-yl)-1-(4-methylphenyl)-1H-pyrazol-5-yl]pyrazolo[1,5-a]pyrimidine-3-carboxamide] reads over 0.1 µM.

The assay is the same for the next values; noted with them: 100 μM ATP, 30 minutes at 25° C.; μM.
`O=C(Nc1cc(C2CCN(CC(F)(F)F)CC2)nn1-c1ccc(C2CC2)cc1F)c1cnn2cccnc12` [Example 76, N-(1-(4-cyclopropyl-2-fluorophenyl)-3-(1-(2,2,2-trifluoroethyl)piperidin-4-yl)-1H-pyrazol-5-yl)pyrazolo[1,5-a]pyrimidine-3-carboxamide]: the IC50 is under 1 µM.
`Cc1cccc(-n2nc(C3CCNCC3)cc2NC(=O)c2cnn3cccnc23)c1` [Example 15, N-(3-(piperidin-4-yl)-1-(m-tolyl)-1H-pyrazol-5-yl)pyrazolo[1,5-a]pyrimidine-3-carboxamide] showed an IC50 of under 1 µM.
Same read-out and setting: to `Cc1ccc(-n2nc(C3CCC(C(N)=O)CC3)cc2NC(=O)c2cnn3cccnc23)cc1` (stereo not shown) [Example 95, N-(3-(4-carbamoylcyclohexyl)-1-(p-tolyl)-1H-pyrazol-5-yl)pyrazolo[1,5-a]pyrimidine-3-carboxamide] belongs under 1 µM; to `Cc1ccc(-n2nc(-c3ccncc3)cc2NC(=O)c2cnn3cccnc23)cc1F` [Example 128, N-(1-(3-fluoro-4-methylphenyl)-3-(pyridin-4-yl)-1H-pyrazol-5-yl)pyrazolo[1,5-a]pyrimidine-3-carboxamide], under 1 µM; to `Cc1ccc(-n2nc(C3CC3)cc2NC(=O)c2cnn3cccnc23)cc1` [Example 130, N-(3-cyclopropyl-1-(p-tolyl)-1H-pyrazol-5-yl)pyrazolo[1,5-a]pyrimidine-3-carboxamide], under 1 µM.
In turn, `COc1ccc(-n2nc(C3CCN(C(=O)C4CC4)CC3)cc2NC(=O)c2cnn3cccnc23)cc1` [Example 33, N-(3-(1-(cyclopropanecarbonyl)piperidin-4-yl)-1-(4-methoxyphenyl)-1H-pyrazol-5-yl)pyrazolo[1,5-a]pyrimidine-3-carboxamide] returned an IC50 of under 1 µM.
Still for that read-out and setting: the result for `Cc1ccc(-n2nc(C3CCN(C(C)C)CC3)cc2NC(=O)c2cnn3cccnc23)c(Cl)c1` [Example 66, N-(1-(2-chloro-4-methylphenyl)-3-(1-isopropylpiperidin-4-yl)-1H-pyrazol-5-yl)pyrazolo[1,5-a]pyrimidine-3-carboxamide] reads under 1 µM; that for `Cc1ccc(-n2nc(C3CCN(S(=O)(=O)c4ccc(F)c(F)c4)CC3)cc2NC(=O)c2cnn3cccnc23)cc1` [Example 365], under 1 µM; that for `COCCOC(=O)N1CC(N2CCC(c3cc(NC(=O)c4cnn5cccnc45)n(-c4ccc(C)cc4)n3)CC2)C1` [Example 242, 2-methoxyethyl 3-(4-{1-(4-methylphenyl)-5-[(pyrazolo[1,5-a]pyrimidin-3-ylcarbonyl)amino]-1H-pyrazol-3-yl}piperidin-1-yl)azetidine-1-carboxylate], under 1 µM.
On the same count and under the same terms, to `Cc1ccc(-n2nc(C3CCC(=NO)CC3)cc2NC(=O)c2cnn3cccnc23)cc1` (stereo not shown) [Example 2, N-(3-(4-(hydroxyimino)cyclohexyl)-1-(p-tolyl)-1H-pyrazol-5-yl)pyrazolo[1,5-a]pyrimidine-3-carboxamide] belongs under 1 µM.
Still for that read-out and setting: to `Cc1ccc(-n2nc(C3CCN(S(=O)(=O)c4cccc(C#N)c4)CC3)cc2NC(=O)c2cnn3cccnc23)cc1` [Example 374, N-[3-{1-[(3-cyanophenyl)sulfonyl]piperidin-4-yl}-1-(4-methylphenyl)-1H-pyrazol-5-yl]pyrazolo[1,5-a]pyrimidine-3-carboxamide] belongs under 1 µM; to `Cc1ccc(-n2nc(C3CCNCC3)cc2NC(=O)c2cnn3cc(Br)cnc23)cc1` [Example 107, 6-bromo-N-(3-(piperidin-4-yl)-1-(p-tolyl)-1H-pyrazol-5-yl)pyrazolo[1,5-a]pyrimidine-3-carboxamide], under 1 µM.
In turn, `CON=C1CCC(c2cc(NC(=O)c3cnn4cccnc34)n(-c3ccc(C)cc3)n2)CC1` (stereo not shown) [Example 3, N-(3-(4-(methoxyimino)cyclohexyl)-1-(p-tolyl)-1H-pyrazol-5-yl)pyrazolo[1,5-a]pyrimidine-3-carboxamide] registered a half-inhibitory concentration (IC50) of under 1 µM.
`COC(=O)C1CCC(c2cc(NC(=O)c3cnn4cccnc34)n(-c3ccc(C)cc3)n2)CC1` (stereo not shown) [Example 93, methyl 4-(5-(pyrazolo[1,5-a]pyrimidine-3-carboxamido)-1-(p-tolyl)-1H-pyrazol-3-yl)cyclohexanecarboxylate] came in with an IC50 of over 1 µM.
The molecule `Cc1ccc(-n2nc(C3CCN(C)CC3)cc2NC(=O)c2cnn3cccnc23)cc1` [Example 36, N-(3-(1-methylpiperidin-4-yl)-1-(p-tolyl)-1H-pyrazol-5-yl)pyrazolo[1,5-a]pyrimidine-3-carboxamide] had an IC50 of under 1 µM.
The same measure, in the same setting: to `COC(=O)N1CCC(c2cc(NC(=O)c3cnn4cccnc34)n(-c3ccc(OC)cc3)n2)CC1` [Example 32, methyl 4-(1-(4-methoxyphenyl)-5-(pyrazolo[1,5-a]pyrimidine-3-carboxamido)-1H-pyrazol-3-yl)piperidine-1-carboxylate] belongs under 1 µM; to `Cc1ccc(-n2nc(C3CCN(S(=O)(=O)c4ccccc4F)CC3)cc2NC(=O)c2cnn3cccnc23)cc1` [Example 378, N-[3-{1-[(2-fluorophenyl)sulfonyl]piperidin-4-yl}-1-(4-methylphenyl)-1H-pyrazol-5-yl]pyrazolo[1,5-a]pyrimidine-3-carboxamide], under 1 µM.
